Test results published in patent US8937078B2, “Quinazolinones as prolyl hydroxylase inhibitors” (Janssen Pharmaceutica NV, priority 2009, dated 2015).

Assays:
[1] = molecular target: T1, human PHD2 (PHD2181-417) (Homo sapiens, UniProt Q9GZT9); test: PHD enzymatic assay ([14C]-succinic acid production); type: biochemical; settings: PHD2181-417, HIF-1α peptide 10 μM, average of results; for IC50: read-out: Enzyme pIC50 (converted)
T1 construct: Smt (SUMO) tag (cleaved yes); made in house; host or cells: E. coli BL21 (pBAD vector)
T1 sequence (Q9GZT9 181-417): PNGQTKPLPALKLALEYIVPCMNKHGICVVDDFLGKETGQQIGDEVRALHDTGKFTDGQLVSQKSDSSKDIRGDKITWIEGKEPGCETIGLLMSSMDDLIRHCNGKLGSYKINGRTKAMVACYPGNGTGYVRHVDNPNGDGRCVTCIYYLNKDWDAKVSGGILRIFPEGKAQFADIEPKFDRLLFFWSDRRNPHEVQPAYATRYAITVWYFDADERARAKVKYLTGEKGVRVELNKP
Outline: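 Activity measured as [14C]-succinic acid formed from [5-14C]-2-oxoglutarate over 10 minutes, with peptide substrate at 10 μM, in Tris-HCl pH 7.5 buffer containing catalase, DTT and ascorbate. Unreacted oxoglutarate removed by DNP derivatisation; supernatant beta-counted.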

[2] = tested on: Hep-3B cells; test: Cellular assay: erythropoietin secretion in Hep-3B cells; type: cell-based, human; settings: Homo sapiens, Hep3B, 100 μM compound, 24 hours, percent of EPO secretion relative to assay control compound 7-[(4-Chloro-phenyl)-(5-methyl-isoxazol-3-ylamino)-methyl]-quinolin-8-ol, read-out: Cellular % EPO Stimulation
Outline: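 Hep-3B cells in DMEM with 10% FBS, treated 24 h after plating with compounds at 100 μM final for a further 24 h. Secreted EPO in supernatant measured by MSD electrochemiluminescence sandwich immunoassay with anti-EPO detection antibody.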

| Compound | IC50 [1] | Emax at 100 µM [2] | Enzyme pIC50 [1] |
| --- | --- | --- | --- |
| Cc1cccc(C)c1OCc1ccc2nc(-n3cc(C(=O)O)cn3)[nH]c(=O)c2c1 [Example 75, 1-[6-(2,6-Dimethyl-phenoxymethyl)-4-oxo-3,4-dihydro-quinazolin-2-yl]-1H-pyrazole-4-carboxylic acid] | 0.02 µM | 20% |  |
| CC(C)Oc1ccc2nc(-n3cc(C(=O)O)cn3)[nH]c(=O)c2c1 [Example 104, 1-(6-isopropoxy-4-oxo-3,4-dihydro-quinazolin-2-yl)-1H-pyrazole-4-carboxylic acid] | 0.0316 µM | 75% |  |
| O=C(O)c1cnn(-c2nc3c(F)ccc(F)c3c(=O)[nH]2)c1 [Example 116, 1-(5,8-Difluoro-4-oxo-3,4-dihydro-quinazolin-2-yl)-1H-pyrazole-4-carboxylic acid] | 0.2 µM | 17% |  |
| O=C(O)c1cnn(-c2nc3ccc(Oc4ccc(F)cc4)cc3c(=O)[nH]2)c1 [Example 32, 1-[6-(4-Fluoro-phenoxy)-4-oxo-3,4-dihydro-quinazolin-2-yl]-1H-pyrazole-4-carboxylic acid] | 0.0251 µM | 68% |  |
| CCc1ccc2nc(-n3cc(C(=O)O)cn3)[nH]c(=O)c2c1 [Example 128, 1-(6-Ethyl-4-oxo-3,4-dihydro-quinazolin-2-yl)-1H-pyrazole-4-carboxylic acid] | 0.0398 µM | 53% |  |
| O=C(O)c1cnn(-c2nc3ccc(-c4cccc(-c5ccccc5)c4)cc3c(=O)[nH]2)c1 [Example 70, 1-(6-Biphenyl-3-yl-4-oxo-3,4-dihydro-quinazolin-2-yl)-1H-pyrazole-4-carboxylic acid] | 0.0316 µM | 41% |  |
| Cc1ccc(Oc2cc3c(=O)[nH]c(-n4cc(C(=O)O)cn4)nc3cc2C)cc1C [Example 92, 1-[6-(3,4-dimethyl-phenoxy)-7-methyl-4-oxo-3,4-dihydro-quinazolin-2-yl]-1H-pyrazole-4-carboxylic acid] | 0.02 µM | 137% |  |
| O=C(O)c1cnn(-c2nc3ccc(Cc4ccccc4)cc3c(=O)[nH]2)c1 [Example 105, 1-(6-benzyl-4-oxo-3,4-dihydro-quinazolin-2-yl)-1H-pyrazole-4-carboxylic acid] | 0.0316 µM | 129% |  |
| O=C(O)c1cnn(-c2nc3ccc(Oc4ccc(Cl)cc4)cc3c(=O)[nH]2)c1 [Example 46, 1-[6-(4-Chloro-phenoxy)-4-oxo-3,4-dihydro-quinazolin-2-yl]-1H-pyrazole-4-carboxylic acid] | 0.0316 µM | 126% |  |
| O=C(O)c1cnn(-c2nc3ccc(OC(F)(F)F)cc3c(=O)[nH]2)c1 [Example 15, 1-(4-Oxo-6-trifluoromethoxy-3,4-dihydro-quinazolin-2-yl)-1H-pyrazole-4-carboxylic acid] | 0.0158 µM | 19% |  |
| O=C(O)c1cnn(-c2nc3c(-c4ccccc4)cccc3c(=O)[nH]2)c1 [Example 111, 1-(4-Oxo-8-phenyl-3,4-dihydro-quinazolin-2-yl)-1H-pyrazole-4-carboxylic acid] | 0.126 µM | 24% |  |
| COc1cccc(Oc2ccc3nc(-n4cc(C(=O)O)cn4)[nH]c(=O)c3c2)c1 [Example 31, 1-[6-(3-Methoxy-phenoxy)-4-oxo-3,4-dihydro-quinazolin-2-yl]-1H-pyrazole-4-carboxylic acid] | 0.02 µM | 129% |  |
| Cc1cccc(C)c1Oc1ccc2nc(-n3cc(C(=O)O)cn3)[nH]c(=O)c2c1 [Example 42, 1-[6-(2,6-Dimethyl-phenoxy)-4-oxo-3,4-dihydro-quinazolin-2-yl]-1H-pyrazole-4-carboxylic acid] | 0.0251 µM | 117% |  |
| O=C(O)c1cnn(-c2nc3cc(Cl)c(Cl)cc3c(=O)[nH]2)c1 [Example 3, 1-(6,7-Dichloro-4-oxo-3,4-dihydro-quinazolin-2-yl)-1H-pyrazole-4-carboxylic acid] | 0.0251 µM | 37% |  |
| O=C(O)c1cnn(-c2nc3ccc(-c4ccc(Cl)cc4)cc3c(=O)[nH]2)c1 [Example 194, 1-[6-(4-Chloro-phenyl)-4-oxo-3,4-dihydro-quinazolin-2-yl]-1H-pyrazole-4-carboxylic acid] | 0.02 µM | 62% |  |
| Cc1ccccc1-c1ccc2nc(-n3cc(C(=O)O)cn3)[nH]c(=O)c2c1 [Example 69, 1-(4-Oxo-6-o-tolyl-3,4-dihydro-quinazolin-2-yl)-1H-pyrazole-4-carboxylic acid] |  | 57% | 8.1 |
| COc1cc(Oc2ccc3nc(-n4cc(C(=O)O)cn4)[nH]c(=O)c3c2)cc(OC)c1OC [Example 28, 1-[4-Oxo-6-(3,4,5-trimethoxy-phenoxy)-3,4-dihydro-quinazolin-2-yl]-1H-pyrazole-4-carboxylic acid] | 0.02 µM | 9% |  |

| Compound | IC50 [1] | Emax at 100 µM [2] | Enzyme pIC50 [1] |
| --- | --- | --- | --- |
| O=C(O)c1cnn(-c2nc3cc(Cc4ccccc4)ccc3c(=O)[nH]2)c1 [Example 136, 1-(7-Benzyl-4-oxo-3,4-dihydro-quinazolin-2-yl)-1H-pyrazole-4-carboxylic acid] | 0.0316 µM | 23% |  |
| CN(C)c1cccc2nc(-n3cc(C(=O)O)cn3)[nH]c(=O)c12 [Example 151, 1-(5-Dimethylamino-4-oxo-3,4-dihydro-quinazolin-2-yl)-1H-pyrazole-4-carboxylic acid] | 0.631 µM | 11% |  |
| O=C(O)c1cnn(-c2nc3ccc(-c4ccccc4OC(F)(F)F)cc3c(=O)[nH]2)c1 [Example 202, 1-[4-Oxo-6-(2-trifluoromethoxy-phenyl)-3,4-dihydro-quinazolin-2-yl]-1H-pyrazole-4-carboxylic acid] | 0.0158 µM | 29% |  |
| O=C(O)c1cnn(-c2nc3ccc(OC4CCCCC4)cc3c(=O)[nH]2)c1 [Example 102, 1-(6-cyclohexyloxy-4-oxo-3,4-dihydro-quinazolin-2-yl)-1H-pyrazole-4-carboxylic acid] | 0.02 µM | 59% |  |
| O=C(O)c1cnn(-c2nc3ccc(C4CC4)cc3c(=O)[nH]2)c1 [Example 109, 1-(6-Cyclopropyl-4-oxo-3,4-dihydro-quinazolin-2-yl)-1H-pyrazole-4-carboxylic acid] | 0.0251 µM | 100% |  |
| C#Cc1ccc2nc(-n3cc(C(=O)O)cn3)[nH]c(=O)c2c1 [Example 76, 1-(6-Ethynyl-4-oxo-3,4-dihydro-quinazolin-2-yl)-1H-pyrazole-4-carboxylic acid] | 0.0316 µM | 16% |  |
| O=C(O)c1cnn(-c2nc3ccc(-c4ccccc4C(F)(F)F)cc3c(=O)[nH]2)c1 [Example 201, 1-[4-Oxo-6-(2-trifluoromethyl-phenyl)-3,4-dihydro-quinazolin-2-yl]-1H-pyrazole-4-carboxylic acid] | 0.0251 µM | 78% |  |
| O=C(O)c1cnn(-c2nc3cc(F)c(C4CCCCC4)cc3c(=O)[nH]2)c1 [Example 110, 1-(6-Cyclohexyl-7-fluoro-4-oxo-3,4-dihydro-quinazolin-2-yl)-1H-pyrazole-4-carboxylic acid] | 0.158 µM | 47% |  |
| O=C(O)c1cnn(-c2nc3cc(C(F)(F)F)ccc3c(=O)[nH]2)c1 [Example 2, 1-(7-Trifluoromethyl-4-oxo-3,4-dihydro-quinazolin-2-yl)-1H-pyrazole-4-carboxylic acid] | 0.158 µM | 21% |  |
| O=C(O)c1cnn(-c2nc3cc(-c4cccc(Cl)c4)ccc3c(=O)[nH]2)c1 [Example 186, 1-[7-(3-Chloro-phenyl)-4-oxo-3,4-dihydro-quinazolin-2-yl]-1H-pyrazole-4-carboxylic acid] | 0.0501 µM | 26% |  |
| O=C(O)c1cnn(-c2nc3ccc(-c4ccccc4F)cc3c(=O)[nH]2)c1 [Example 195, 1-[6-(2-Fluoro-phenyl)-4-oxo-3,4-dihydro-quinazolin-2-yl]-1H-pyrazole-4-carboxylic acid] | 0.0251 µM | 100% |  |
| O=C(O)c1cnn(-c2nc3cc(F)c(Oc4ccc5c(c4)CCC5)cc3c(=O)[nH]2)c1 [Example 58, 1-[7-Fluoro-6-(indan-5-yloxy)-4-oxo-3,4-dihydro-quinazolin-2-yl]-1H-pyrazole-4-carboxylic acid] | 0.0316 µM | 62% |  |
| O=C(O)c1cnn(-c2nc3ccc(-c4cccc(Cl)c4)cc3c(=O)[nH]2)c1 [Example 193, 1-[6-(3-Chloro-phenyl)-4-oxo-3,4-dihydro-quinazolin-2-yl]-1H-pyrazole-4-carboxylic acid] | 0.0316 µM | 141% |  |
| Cc1ccc(CNc2ccc3nc(-n4cc(C(=O)O)cn4)[nH]c(=O)c3c2)cc1 [Example 183, 1-[6-(4-methyl-benzylamino)-4-oxo-3,4-dihydro-quinazolin-2-yl]-1H-pyrazole-4-carboxylic acid] | 0.0158 µM | 89% |  |
| O=C(O)c1cnn(-c2nc3c(Oc4ccccc4)cccc3c(=O)[nH]2)c1 [Example 112, 1-(4-Oxo-8-phenoxy-3,4-dihydro-quinazolin-2-yl)-1H-pyrazole-4-carboxylic acid] | 0.158 µM | 18% |  |
| O=C(O)c1cnn(-c2nc3ccc4[nH]ccc4c3c(=O)[nH]2)c1 [Example 23, 1-(1-Oxo-2,7-dihydro-1H-pyrrolo[3,2-f]quinazolin-3-yl)-1H-pyrazole-4-carboxylic acid] | 0.158 µM | 33% |  |
